Test results from patent publication US20140349922A1 (priority 2011, published 2014).

Key:
[1] = IP glucose tolerance test (IPGTT); type: in vivo, C57BL/6 mice; details: OXM and PEG40-EMCS-OXM 333 nmol/kg 15 min before glucose, PEG40-Fmoc-OXM […] peptide content 2 hrs before, vs vehicle
Method: Blood glucose levels were measured by tail vein sampling prior to glucose administration and 10, 20, 30, 60 and 120 min after glucose administration using a handheld glucometer.
Blood glucose levels were measured by tail vein sampling prior to glucose administration and 10, 20, 30, 60 and 120 min after to glucose administration using a handheld glucometer.

[2] = Diet-induced obesity mice model, Study 1: body weight and food intake; type: in vivo, C57BL/6J mice; details: SC, 7 days dosing, OXM 5000 nmol/kg b.i.d; for Body weight loss on Day 8 compared to control group: PEG40-FMS-OXM 5000 nmol/kg Days 1, 3, 5, 7, Sibutramine 20 mg/kg b.i.d
Method: Data are adjusted means (n=10). SEMs are calculated from the residuals of the statistical model. Mice were dosed for 7 days started on Day 1. […] Significant differences vs. appropriate vehicle: *p<0.05, **p<0.01, ***p<0.001. Percentage values indicate difference from appropriate vehicle group on Day 8 (i.e. after 7 days dosing).
Measurements of body weight and food intake were performed daily until Day 8. The final measurement of body weight was carried out on Day 12.
Body weight and food intake are expressed as mean values±SEM.

[3] = DIO mouse model, 29 days dosing (Example 6): body weight; type: in vivo, C57BL/6J mice; details: SC 6,000 nmol/kg; PEG conjugates weekly, native OXM twice per day
[4] = DIO mice, fasting glucose and fasting insulin after single dose, experiment #1 (Example 7); type: in vivo; details: experiment #1, day 2
Method: (§1) On the morning of day 1 the mice were dosed followed by an overnight fasting. On days 2, 24 h following administration (groups A-E) or prior to the morning dosing (groups F-H), the mice were sampled for fasting glucose and fasting insulin.
In this set of experiments two independent in vivo studies were carried out. The first experiment included 8 groups (n=8) of DIO mice that were dosed for 2 days as follows: […]

[5] = molecular target: CHO-K1 cells over-expressing GLP-1 receptor (Homo sapiens, UniProt P43220); details: rat serum 1%
Method: Cells cAMP concentrations were quantified by HTRF assay (Cisbio 62AM4PEB) and EC50 parameter was analyzed by PRISM software.
Cells' cAMP concentrations were quantified by HTRF assay (Cisbio 62AM4PEB), and the EC50 parameter was analyzed by PRISM software.

[6] = DIO mice, fasting glucose and fasting insulin after single dose, experiment #2 (Example 7); type: in vivo; details: experiment #2, day 2; PEG-OXM single SC 6000 nmol/kg; Liraglutide 200 μg/kg bid
Method: as §1
The second experiment included 7 groups (n=7) of DIO mice that were dosed for 2 days as follows: […]

[7] = single SC 6,000 nmol/kg (OXM b.i.d)

Chain of CHO-K1 cells over-expressing GLP-1 receptor (P43220 24-463): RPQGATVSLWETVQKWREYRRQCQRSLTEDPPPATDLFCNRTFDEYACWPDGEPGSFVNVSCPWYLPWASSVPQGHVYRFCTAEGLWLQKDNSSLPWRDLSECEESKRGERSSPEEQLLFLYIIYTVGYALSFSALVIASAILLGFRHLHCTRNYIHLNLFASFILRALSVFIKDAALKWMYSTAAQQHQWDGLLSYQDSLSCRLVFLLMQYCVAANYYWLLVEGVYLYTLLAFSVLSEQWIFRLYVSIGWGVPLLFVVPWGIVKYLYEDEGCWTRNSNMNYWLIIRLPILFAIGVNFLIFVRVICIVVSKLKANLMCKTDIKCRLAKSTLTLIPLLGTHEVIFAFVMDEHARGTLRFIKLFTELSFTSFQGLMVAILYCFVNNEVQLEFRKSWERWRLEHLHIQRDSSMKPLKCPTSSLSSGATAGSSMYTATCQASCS

Compound | Induction of glucose tolerance (blood glucose after IP glucose 1.5 gr/kg) [1] | Body weight loss on Day 8 compared to control group [2] | Inhibition of food intake ([2]; PEG40-FMS-OXM 5000 nmol/kg every other day) | Weight loss during a 30-day period [3] | Fasting glucose compared to vehicle [4, 7] | Fasting plasma insulin compared to controls [4, 7] | cAMP activity after incubation in rat serum versus without serum [5] | Fasting glucose level ([4]; PEG-OXM single SC 6,000 nmol/kg on day 1, Liraglutide 200 μg/kg b.i.d) | Fasted plasma insulin level ([4]; PEG-OXM single SC 6,000 nmol/kg, Liraglutide 200 μg/kg b.i.d) | Fasted plasma insulin level [6] | Fasting glucose level [6]
Oxyntomodulin [OXM] | minor effect on the glucose tolerance | 6% | statistically significant inhibition of food intake | 17% | did not show any significant difference | did not show any significant difference | reduced activity |  |  |  | 
CCCCCCCCCCCCCCCC(=O)N[C@@H](CCC(=O)NCCCC[C@H](NC(=O)[C@H](C)NC(=O)[C@H](C)NC(=O)[C@H](CCC(N)=O)NC(=O)CNC(=O)[C@H](CCC(=O)O)NC(=O)[C@H](CC(C)C)NC(=O)[C@H](Cc1ccc(O)cc1)NC(=O)[C@H](CO)NC(=O)[C@H](CO)NC(=O)[C@@H](NC(=O)[C@H](CC(=O)O)NC(=O)[C@H](CO)NC(=O)[C@@H](NC(=O)[C@H](Cc1ccccc1)NC(=O)[C@@H](NC(=O)CNC(=O)[C@H](CCC(=O)O)NC(=O)[C@H](C)NC(=O)[C@@H](N)Cc1cnc[nH]1)[C@@H](C)O)[C@@H](C)O)C(C)C)C(=O)N[C@@H](CCC(=O)O)C(=O)N[C@@H](Cc1ccccc1)C(=O)N[C@H](C(=O)N[C@@H](C)C(=O)N[C@@H](Cc1c[nH]c2ccccc12)C(=O)N[C@@H](CC(C)C)C(=O)N[C@H](C(=O)N[C@@H](CCCNC(=N)N)C(=O)NCC(=O)N[C@@H](CCCNC(=N)N)C(=O)NCC(=O)O)C(C)C)[C@@H](C)CC)C(=O)O [Liraglutide] |  |  |  |  |  |  |  | 6.06 mM | 4.4 ng/mL | 3 ng/mL | 6.7 mM
CC(C)CC(N(C)C)C1(c2ccc(Cl)cc2)CCC1 (stereo not drawn) [Sibutramine] |  | 15.6% |  |  |  |  |  |  |  |  | 
